Among the data in the supplement of paper PMC10307832 are relative viability values, retold here.

Common to all, as to assay: relative viability (nuclei count vs DMSO), 5 days (fraction); higher = more cells survive
Compound in one test: Cc1ccc(NC(=O)c2ccc(CN3CCN(C)CC3)cc2)cc1Nc1nccc(-c2cccnc2)n1 [Imatinib]
Summed up:
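On vehicle-anchored 1536-well plates, lung cancer cell lines held overnight at 37 °C were pinned with five library-drug doses (not always all listed) spaced by √10. With no medium change over 5 days, they were then fixed, permeabilised and Hoechst-stained in one step and imaged at 4×. MetaXpress counted nuclei, and viability is the median across plates of treated-well over vehicle-well nuclei. Acceptance needed control CV below 25% and at least one doubling.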

Compound in the test “Imatinib + Bortezomib”: Cc1ccc(NC(=O)c2ccc(CN3CCN(C)CC3)cc2)cc1Nc1nccc(-c2cccnc2)n1 [Imatinib] + CC(C)C[C@H](NC(=O)[C@H](Cc1ccccc1)NC(=O)c1cnccn1)B(O)O [Bortezomib] (partner 0.002 µM)
The method in brief:
(§1)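 Lung cancer cell lines were pin-tool dosed in 1536-well plates on the day after seeding, with either a lone drug or a fixed anchor-drug dose plus five library-drug doses (not always all listed) in √10 steps. Nuclei were counted on 4× images after 5 days. Relative viability is the ratio of treated-well to vehicle-well nuclei counts, with each value a median of duplicate plates.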

Compound in the test “Imatinib + Dasatinib”: Cc1ccc(NC(=O)c2ccc(CN3CCN(C)CC3)cc2)cc1Nc1nccc(-c2cccnc2)n1 [Imatinib] + Cc1nc(Nc2ncc(C(=O)Nc3c(C)cccc3Cl)s2)cc(N2CCN(CCO)CC2)n1 [Dasatinib] (partner 0.075 µM)
The method in brief:
as §1

Compound in the test “Imatinib + Decitabine”: Cc1ccc(NC(=O)c2ccc(CN3CCN(C)CC3)cc2)cc1Nc1nccc(-c2cccnc2)n1 [Imatinib] + Nc1ncn([C@H]2C[C@H](O)[C@@H](CO)O2)c(=O)n1 [Decitabine] (partner 2 µM)
Summed up:
as §1

Take UMC-11: the relative viability with Imatinib (0.02 µM) came out at 1.03; with Imatinib (0.06325 µM), 0.987; in the test with Imatinib (0.2 µM), 1.03; with Imatinib (0.6325 µM), 1.1; in the test with Imatinib (2 µM), 0.941; with Imatinib + Bortezomib (first compound 0.02 µM) it was 0.707. Also, the relative viability with Imatinib + Bortezomib (first compound 0.06325 µM) is 0.841; with Imatinib + Bortezomib (first compound 0.2 µM) it was 0.939; with Imatinib + Bortezomib (first compound 0.6325 µM), 0.844; with Imatinib + Bortezomib (first compound 2 µM), 0.668; in the test with Imatinib + Dasatinib (first compound 0.02 µM), 0.527; with Imatinib + Dasatinib (first compound 0.06325 µM), 0.34. For the same cell line, the relative viability with Imatinib + Dasatinib (first compound 0.2 µM) stood at 0.619; with Imatinib + Dasatinib (first compound 0.6325 µM), 0.507; with Imatinib + Dasatinib (first compound 2 µM), 0.457; with Imatinib + Decitabine (first compound 0.02 µM) it was 0.554; with Imatinib + Decitabine (first compound 0.06325 µM), 0.615; in the test with Imatinib + Decitabine (first compound 0.2 µM), 0.59. Besides, the values for the relative viability in the test with Imatinib + Decitabine (first compound 0.6325 µM) and with Imatinib + Decitabine (first compound 2 µM) were 0.619 and 0.683, respectively.
